Source: patent US4382925A
In brackets after ≈: the same amount, converted by molar mass. Entries after “also recorded” stand apart in the source; their conditions may differ. Read-outs that look alike come from different tables or passages of the source.

Tests used:
[1] = tested on: Herpes simplex-1 strain KOS; experiment: Inhibition of cytopathic effect of herpes simplex-1 virus strain KOS in PRK and HSF cell cultures (Test 1); format: cell-based; conditions: average of three experiments
[2] = tested on: herpes simplex-1 (strain KOS) virus; experiment: Antiviral index in PRK cell cultures (Test 4); format: cell-based, herpes simplex-1 virus; conditions: ratio of ID50 for (2-^14 C)UdR incorporation to ID50 for herpes simplex-1 (strain KOS), PRK cells
Protocol: The antiviral index was determined as the ratio of ID50 for (2-^14 C)UdR incorporation into cell DNA to ID50 for herpes simplex-1 (strain KOS) virus replication (compare Tables 1 and 3).

[3] = tested on: (2-^14 C)UdR incorporation into cell DNA, PRK cell cultures; conditions: separate experiments reported by De Clercq et al., PNAS 76, 2947-2951 (1979); cited from earlier work
cell culture [4] = conditions: prior art literature; cited from earlier work
[5] = tested on: (Methyl-^3 H)TdR incorporation into cell DNA, PRK cell cultures; conditions: separate experiments reported by De Clercq et al., PNAS 76, 2947-2951 (1979); cited from earlier work
[6] = tested on: Herpes simplex-1 strain McIntyre; experiment: Inhibition of cytopathic effect of herpes simplex-1 virus strain McIntyre in PRK cell cultures (Test 1); format: cell-based; conditions: PRK cells, average of three experiments, read-out: ID50, Herpes simplex-1 strain McIntyre (PRK)
[7] = Antimetabolic activity in PRK cell cultures: (2-^14 C)UdR incorporation into cell DNA (Test 3); format: cell-based; conditions: rabbit, PRK cells, read-out: ID50, (2-^14 C)UdR incorporation into cell DNA
Protocol: (§1) To this end, the incorporation of certain radiolabelled DNA precursors into DNA of the cells, and the effect of 5-(2-halogenovinyl)-2'-deoxycytidines and related compounds thereon, was tested. The technique has been described by De Clercq et al in Biochemical Pharmacology, 26, 794-797 (1977) and by De Clercq et al in Molecular Pharmacology, 14, 422-430, (1978).
(§2) The DNA precursors as used were (methyl-^3 H), (2'-deoxythymidine ) (TdR), and (2-^14 C) (2'-deoxyuridine) (UdR).
(§3) The cells were exposed to 0.12 μCi:0.01 nmol (methyl-^3 H)TdR (per 10^5 cells) or 14 μCi/250 nmol (2-^14 C) UdR (per 10^5 cells) for 16 hours in the presence of varying concentrations of the compounds (ranging from 1 to 200 μg/ml). Incorporation of the radiolabelled precursor was then measured as described and the ID50 was determined. ID50 corresponds to the inhibitory dose-50, that is the concentration of compound required to inhibit incorporation of either (methyl-^3 H)TdR or (2-^14 C)UdR by 50%.

[8] = Antimetabolic activity in PRK cell cultures: (methyl-^3 H)TdR incorporation into cell DNA (Test 3); format: cell-based; conditions: rabbit, PRK cells, read-out: ID50, (Methyl-^3 H)TdR incorporation into cell DNA
Protocol: as §1, §2, §3

[9] = tested on: herpes simplex-1 (strain KOS) virus; conditions: separate experiments, De Clercq et al., PNAS 1979; cited from earlier work
[10] = tested on: Herpes simplex-1 strain F; experiment: Inhibition of cytopathic effect of herpes simplex-1 virus strain F in PRK cell cultures (Test 1); format: cell-based; conditions: PRK cells, average of three experiments, read-out: ID50, Herpes simplex-1 strain F (PRK)
herpes simplex virus [11] = conditions: De Clercq et al., PNAS 76, 2947-2951 (1979); cited from earlier work
vaccinia virus = experiment: microbe, parasite or virus in culture; format: cell-based; conditions: Orthopoxvirus vaccinia
[12] = tested on: herpes simplex-1 (strain KOS) virus; conditions: dose 10 μl/ml [sic]
cell culture [13] = experiment: Toxicity in cell culture, overall statements; format: cell-based; conditions: in words
Protocol: as §3

herpes simplex virus [14] = experiment: Antiviral activity against herpes simplex virus in cell culture, overall statements; format: cell-based; conditions: in words
[15] = HSF cells, read-out: ID50, Herpes simplex-1 strain KOS (HSF)
[16] = PRK cells, read-out: ID50, Herpes simplex-1 strain KOS (PRK)
[17] = HSF, read-out: ID50, Vaccinia (HSF)
[18] = PRK, read-out: ID50, Vaccinia (PRK)

Which results are given for `O=c1[nH]c(=O)n([C@H]2C[C@H](O)[C@@H](CO)O2)cc1/C=C/I` [E-5-(2-iodovinyl)-2'-deoxyuridine]?
IC50 [1, 15]: 0.02 µg/mL (≈ 0.0526 µM); IC50 [1, 16]: 0.01 µg/mL (≈ 0.0263 µM); Antiviral index [2]: 15000; ID50, (2-^14 C)UdR incorporation into cell DNA (data in parentheses) [3]: 70 µg/mL (≈ 184 µM); toxicity in cell culture, reported (cell culture [4]): low toxicity in cell culture; ID50, (Methyl-^3 H)TdR incorporation into cell DNA (data in parentheses) [5]: 70 µg/mL (≈ 184 µM); IC50 [6]: 0.01 µg/mL (≈ 0.0263 µM); IC50 at 16 h [7]: 150 µg/mL (≈ 395 µM); IC50 at 16 h [8]: 80 µg/mL (≈ 210 µM); Antiviral index (numbers in parentheses) [9]: 7000; IC50 [10]: 0.01 µg/mL (≈ 0.0263 µM); antiviral activity against herpes simplex virus, reported (herpes simplex virus [11]): specific antiviral activity against herpes simplex virus; IC50 (vaccinia virus; [17]): 1 µg/mL (≈ 2.63 µM); IC50 (vaccinia virus; [18]): 10 µg/mL (≈ 26.3 µM)

Which IC50 [1, 15] does the source give for `O=c1[nH]c(=O)n([C@H]2C[C@H](O)[C@@H](CO)O2)cc1I` [5-iodo-2'-deoxyuridine] here?
Its IC50 is 0.2 µg/mL (≈ 0.565 µM).

What about the IC50 [1, 16] of the same compound?
The IC50 was 0.1 µg/mL (≈ 0.282 µM).

What about the “ID50, (2-^14 C)UdR incorporation into cell DNA (data in parentheses)” value [3] of the same compound?
Its value is 1.2 µg/mL (≈ 3.39 µM).

What about the “toxicity in cell culture, reported” value (cell culture [4]) of the same compound?
Its value is “cannot be neglected”.

What about the “ID50, (Methyl-^3 H)TdR incorporation into cell DNA (data in parentheses)” value [5] of the same compound?
Its value is 2.5 µg/mL (≈ 7.06 µM).

And the IC50 [6]?
The IC50 was 0.15 µg/mL (≈ 0.424 µM).

And the “Reduction in virus yield as compared to control (untreated virus-infected) cell cultures” value (from here on “Reduction in virus yield”) ([12]; 1 day after infection)?
Its value is 4.0 log10 PFU/ml.

And the “Reduction in virus yield” value ([12]; 2 days after infection)?
Its value is 2.6 log10 PFU/ml.

And the “Reduction in virus yield” value ([12]; 3 days after infection)?
The value was 1.9 log10 PFU/ml.

What about the “Antiviral index (numbers in parentheses)” value [9] of the same compound?
The value was 12.

What about the IC50 [10] of the same compound?
Its IC50 is 0.2 µg/mL (≈ 0.565 µM).

What about the IC50 (vaccinia virus; [17]) of the same compound?
The IC50 was 0.2 µg/mL (≈ 0.565 µM).

And the IC50 (vaccinia virus; [18])?
The IC50 was 0.02 µg/mL (≈ 0.0565 µM).

What does the source list for `Nc1nc(=O)n([C@H]2C[C@H](O)[C@@H](CO)O2)cc1/C=C/Br` [E-5-(2-bromovinyl)-2'-deoxycytidine]?
toxicity in cell culture (cell culture [13]): apparently nil; also recorded: apparent lack of toxicity in cell culture; IC50 [1, 15]: 0.07 µg/mL (≈ 0.211 µM); IC50 [1, 16]: 0.07 µg/mL (≈ 0.211 µM); IC50 [6]: 0.07 µg/mL (≈ 0.211 µM); IC50 at 16 h [7]: > 200 µg/mL; specific antiviral activity against herpes simplex virus (herpes simplex virus [14]): excellent and highly specific antiviral activity against herpes simplex virus; also recorded: very specific towards herpes simplex virus; IC50 at 16 h [8]: > 200 µg/mL; Reduction in virus yield as compared to control (untreated virus-infected) cell cultures ([12]; 1 day after infection): 3.8 log10 PFU/ml; Reduction in virus yield as compared to control (untreated virus-infected) cell cultures ([12]; 2 days after infection): 2.9 log10 PFU/ml; Reduction in virus yield as compared to control (untreated virus-infected) cell cultures ([12]; 3 days after infection): 2.2 log10 PFU/ml; IC50 [10]: 0.1 µg/mL (≈ 0.301 µM); IC50 (vaccinia virus; [17]): 2 µg/mL (≈ 6.02 µM); IC50 (vaccinia virus; [18]): 10 µg/mL (≈ 30.1 µM)

For `O=c1[nH]c(=O)n([C@H]2C[C@H](O)[C@@H](CO)O2)cc1/C=C/Br` [E-5-(2-bromovinyl)-2'-deoxyuridine], which IC50 [1, 15] is on record?
The IC50 was 0.01 µg/mL (≈ 0.03 µM).

And the IC50 [1, 16]?
The IC50 was 0.007 µg/mL (≈ 0.021 µM).

What about the Antiviral index [2] of the same compound?
The Antiviral index was 14300.

What about the “ID50, (2-^14 C)UdR incorporation into cell DNA (data in parentheses)” value [3] of the same compound?
Its value is 70 µg/mL (≈ 210 µM).

And the “toxicity in cell culture, reported” value (cell culture [4])?
The value was “low toxicity in cell culture”.

What about the “ID50, (Methyl-^3 H)TdR incorporation into cell DNA (data in parentheses)” value [5] of the same compound?
The value was 70 µg/mL (≈ 210 µM).

What about the IC50 [6] of the same compound?
Its IC50 is 0.01 µg/mL (≈ 0.03 µM).

And the IC50 at 16 h [7]?
The IC50 at 16 h was 100 µg/mL (≈ 300 µM).

What about the IC50 at 16 h [8] of the same compound?
Its IC50 at 16 h is 100 µg/mL (≈ 300 µM).

And the “Antiviral index (numbers in parentheses)” value [9]?
Its value is 10000.

And the IC50 [10]?
The IC50 was 0.01 µg/mL (≈ 0.03 µM).

What about the “antiviral activity against herpes simplex virus, reported” value (herpes simplex virus [11]) of the same compound?
Its value is “specific antiviral activity against herpes simplex virus”.

And the IC50 (vaccinia virus; [17])?
Its IC50 is 0.7 µg/mL (≈ 2.1 µM).

What about the IC50 (vaccinia virus; [18]) of the same compound?
The IC50 was 7 µg/mL (≈ 21 µM).

What does the source list for `Nc1nc(=O)n([C@H]2C[C@H](O)[C@@H](CO)O2)cc1/C=C/I` [E-5-(2-iodovinyl)-2'-deoxycytidine]?
toxicity in cell culture (cell culture [13]): apparently nil; also recorded: apparent lack of toxicity in cell culture; IC50 [1, 15]: 0.07 µg/mL (≈ 0.185 µM); IC50 [1, 16]: 0.1 µg/mL (≈ 0.264 µM); IC50 [6]: 0.07 µg/mL (≈ 0.185 µM); IC50 at 16 h [7]: > 200 µg/mL; specific antiviral activity against herpes simplex virus (herpes simplex virus [14]): excellent and highly specific antiviral activity against herpes simplex virus; also recorded: very specific towards herpes simplex virus; IC50 at 16 h [8]: > 200 µg/mL; Reduction in virus yield as compared to control (untreated virus-infected) cell cultures ([12]; 1 day after infection): 4.3 log10 PFU/ml; Reduction in virus yield as compared to control (untreated virus-infected) cell cultures ([12]; 2 days after infection): 2.8 log10 PFU/ml; Reduction in virus yield as compared to control (untreated virus-infected) cell cultures ([12]; 3 days after infection): 2.0 log10 PFU/ml; IC50 [10]: 0.2 µg/mL (≈ 0.527 µM); IC50 (vaccinia virus; [17]): 7 µg/mL (≈ 18.5 µM); IC50 (vaccinia virus; [18]): 10 µg/mL (≈ 26.4 µM)
